# Several values for one entry are separate records, joined by “and”; a condition that tells them apart may be missing. Identical values can stand only once.
# T1: RapD (Rhizobium johnstonii, UniProt Q1MFT2)
# T1 construct: gene RL2702
# T1 sequence (Q1MFT2 1-277): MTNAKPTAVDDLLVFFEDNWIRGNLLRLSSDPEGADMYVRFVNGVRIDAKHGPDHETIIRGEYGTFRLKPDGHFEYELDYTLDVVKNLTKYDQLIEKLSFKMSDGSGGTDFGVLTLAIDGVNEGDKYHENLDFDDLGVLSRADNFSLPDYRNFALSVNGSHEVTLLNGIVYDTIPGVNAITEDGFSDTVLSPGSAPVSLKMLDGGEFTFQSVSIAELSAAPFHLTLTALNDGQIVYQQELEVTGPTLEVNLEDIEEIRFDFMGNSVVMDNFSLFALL
# B1: Recombinant full-length RapD (natural protein, Rhizobium leguminosarum bv. viciae 3841, UniProt Q1MFT2 1-277, looked up)
# chain: MTNAKPTAVDDLLVFFEDNWIRGNLLRLSSDPEGADMYVRFVNGVRIDAKHGPDHETIIRGEYGTFRLKPDGHFEYELDYTLDVVKNLTKYDQLIEKLSFKMSDGSGGTDFGVLTLAIDGVNEGDKYHENLDFDDLGVLSRADNFSLPDYRNFALSVNGSHEVTLLNGIVYDTIPGVNAITEDGFSDTVLSPGSAPVSLKMLDGGEFTFQSVSIAELSAAPFHLTLTALNDGQIVYQQELEVTGPTLEVNLEDIEEIRFDFMGNSVVMDNFSLFALL
# notes: N-terminal Ra/CHDL domain (aa 1-122) and C-terminal region (aa 123-277); Cloned NdeI-NotI into pET-22b; The protein was decalcified with EGTA before calcium was added; also called Apo-RapD; RapD-Apo; source: E. coli BL21 (DE3) carrying pET22brapD, purified (Ni-NTA HiTrap Chelating, dialysis against 10 mM EGTA, Superdex 200); not shown: His tag (from the vector pET-22b)
# How the values were obtained:
# [1] = target: T1, RapD; experiment: binding inhibition assay (ELISA): RapD to immobilized EPS; conditions: with calcium (TBS, 1 mM CaCl2); room temperature; galactose 0-300 mM preincubated with RapD; proteinase K treated Rlv 3841 EPS immobilized; indirect competition read-out
# [2] = target: the molecule itself; experiment: SEC with 90° static light scattering (SLS) and refractometer; Superdex 200, 100 ul of RapD at 1 mg/ml pre-incubated with 1.25 mM CaCl2, 20 mM Tris-HCl, 0.15 M NaCl, pH 8, 0.4 ml/min, 20°C, BSA as standard
Molecule,partial inhibition of EPS binding [1],stoichiometry N [2]
OC[C@H]1OC(O)[C@H](O)[C@@H](O)[C@H]1O (some centres unmarked) [galactose],RapD interaction with the EPS was partially inhibited in the presence of high concentrations of galactose,–
B1,–,3 and 2
